Columns and labels:
[1] = tested on: Pan T cells isolated from C57BL6 splenocytes; experiment: T cell activation assay (flow cytometry, CD25/CD69 on CD8 T cells); type: cell-based, mouse; settings: for % CD25 within CD8+ / % CD69 within CD8+ / CD25 MFI / CD69 MFI: 30 μM compound, 2 days; for T cell activation and T cell function: with TCR stimulation
Description: Pan T cells were isolated from C57BL6 splenocytes using a MACS Pan T cell isolation kit II (Miltenyi Biotec, Auburn, Calif.) according to the manufacturer's instructions. Isolated T cells (200,000 cells/well in a 96 well flat-bottom plate) were cultured in RPMI 1640 supplemented with 10% FBS, […] 2-mercatoethanol, 100 U/mL penicillin, and 100 μg/mL streptomycin, and incubated with the indicated concentration of compound or DMSO in duplicates. After 1 hour, mouse T cell activator CD3/CD28 Dynabeads (ThermoFisher Scientific, Waltham, Mass.) were added at a 1:5 beads to cells ratio to stimulate the T cells for 2 or 3 days as outlined below. T cells with or without compound were incubated in the absence of T cell activator beads (media only) as control.
After 2 days of stimulation, activation status of T cells was assessed by flow cytometry. T cells were first subjected to Zombie Violet™ Fixable Viability dye (BioLegend, San Diego, Calif.) for dead cell exclusion, washed and then stained with BUV805 labeled anti-CD8, APC-R700 labeled anti-CD25 (both from BD Biosciences, San Jose, Calif.) and PE labeled anti-CD69 (BioLegend, San Diego, Calif.) antibodies. After staining, cells were fixed with 2% paraformaldehyde and acquired on a BD LSRFortessa™ X-20 flow cytometer (BD Biosciences, San Jose, Calif.) using BD FACSDiva™ software. Data was analyzed using FlowJo V10 (Flow Jo LLC, Ashland, Oreg.). Dead cells were excluded and frequencies of activated CD8 T cells was reported as the frequency of CD25+ or CD69+ cells within the CD8+ population. The expression level of CD25 and CD69 indicates the activation status of cells on a per cell basis and was evaluated by the mean fluorescence intensities (MFI) of CD25 and CD69.

IP10 = experiment: Cytokine measurement in mouse plasma (IP10); type: in vivo; settings: 300 mg/kg/dose oral BID; day 8 of dosing, 2 hours post 16th dose
Description: Whole blood was drawn into sodium heparin by cardiac puncture from mice on day 8 of dosing with indicated PTPN2/1B inhibitor (2 hours after the 16th dose) and plasma was prepared by centrifugation. Cytokines in plasma were measured using the Th1/Th2 Cytokine & Chemokine 20-Plex Mouse ProcartaPlex™ Panel 1 (Invitrogen, Carlsbad, Calif.). IP10 levels were expressed as fold-changes over the vehicle control animal group.

[2] = tested on: MC-38 murine colon adenocarcinoma; experiment: In vivo efficacy in MC38 tumor model; settings: for mice that achieved complete cures / tolerability / Tumor Growth Inhibition (Max) compared to vehicle [%]: 300 mg/kg/dose oral BID for 21 days; for Tumor Growth Inhibition (Max) compared to vehicle [%]: C57Bl/6 mice, TGIMax over the entirety of the study; for tumor response observed: within 7-10 days of treatment
Description: All experiments were conducted in compliance with AbbVie's Institutional Animal Care and Use Committee and the National Institutes of Health Guide for Care and Use of Laboratory Animals guidelines in a facility accredited by the Association for the Assessment and Accreditation of Laboratory Animal Care. C57Bl/6 female mice were obtained from Charles River (Wilmington, Mass.). The mice were group-housed 10 per cage. Food and water were available ad libitum. Animals were acclimated to the animal facilities for a period of at least one week prior to commencement of experiments. Animals were tested in the light phase of a 12-hour light:12-hour dark schedule (lights on 0600 hours).
Cells were grown to passage 3 in vitro. A total of 1×10^5 viable MC-38 cells were inoculated subcutaneously into the right flank of female C57Bl/6 mice (7-12 weeks old) on Day 0. The injection volume was 0.1 mL and was composed of a 1:1 mixture of S-MEM and Matrigel® (Corning, N.Y., USA). […] The mean tumor volume (TV) at size match was approximately 116±8 mm^3. Following size match, treatments were initiated on the same day. […] Compound 124 was formulated in 5% DMSO, 5% Tween 80 (Polysorbate 80), 20% PEG-400 and 70% D5W (5% dextrose in water) and was dosed at 10 mL/kg. […] Tumor volume was calculated three times weekly. Measurements of the length (L) and width (W) of the tumor were taken via electronic caliper and the volume was calculated according to the following equation: V=L×W^2/2 using Study Director Version 3.1.399.22 (Studylog Systems, Inc, CA, USA). Mice were euthanized when tumor volume was […] or skin ulcerations occurred. […] Reported TGIMax is the largest TGI value for any timepoint that tumors volumes were collected for that treatment group.

pSTAT5 in CD3+ T cells = experiment: pSTAT5 flow cytometry assay in mouse whole blood; type: in vivo; settings: 300 mg/kg/dose oral BID; day 8 of dosing, 2 hours post 16th dose; 100 ng/mL murine IL-2
Description: Whole blood was drawn into EDTA powder coated tubes by cardiac puncture from mice on day 8 of dosing with indicated PTPN2/1B inhibitor (2 hours after the 16th dose). 100 μL of whole blood were stimulated with 100 ng/mL murine IL-2 (R&D Systems, Minneapolis, Minn., cat #402-ML) for 20 minutes at 37° C., 5% CO2. After stimulation, 1.8 mL of prewarmed BD Phosflow Lyse/Fix Buffer (BD Biosciences, San Jose, Calif.) was added for 20 minutes at 37° C. Cells were washed twice in FACS buffer (Dulbecco's PBS with 0.2% BSA) and incubated for 30 minutes on ice in cold Perm Buffer III (BD Biosciences, San Jose, Calif.). Cells were washed with FACS buffer and resuspended in […] of FACS buffer with antibodies and stained for 3 hours at room temperature with gentle shaking. […] After staining, cells were washed twice with FACS buffer, and the samples were acquired on a BD LSRFortessa™ X20 flow cytometers (BD Biosciences, San Jose, Calif.) and analyzed with FLowJo V10 software (FlowJo, Ashland, Oreg.). The mean fluorescence intensity (MFI) of pSTAT5 as a measure of the amount of phosphorylated STAT5 in the CD3+ T cell population was reported as fold-change of compound treated over vehicle treated animal groups.

[3] = tested on: Granzyme B+ cells within CD8+ T cells; experiment: Granzyme B staining of CD8 T cells flow cytometry assay in mouse spleen; type: in vivo; settings: 300 mg/kg/dose oral BID; day 8 of dosing, 2 hours post 16th dose
Description: Mice were sacrificed on day 8 of dosing with indicated PTPN2/1B inhibitor (2 hours after the 16th dose) and spleens were excised. Spleens were dissociated with a gentleMACS dissociator (Miltenyi Biotec, Bergisch Gladbach, Germany), red blood cells lysed, and single cell suspensions were prepared. Splenocytes were stained with Zombie UV™ Fixable Viability kit (Biolegend, San Diego, Calif.) diluted in Dulbecco's PBS for 10 minutes at room temperature to exclude dead cells followed by staining for surface markers for 45 minutes on ice using the following flow cytometry antibodies diluted in autoMACS Running Buffer (Miltenyi Biotec, Bergisch Gladbach, Germany): Brilliant Violet 510-labeled anti-CD45, Brilliant Ultraviolet 395-labeled anti-CD3, Brilliant Violet 786-labeled anti-CD4, APC/Cy7-labeled anti-CD8. […] After staining, cells were washed twice with autoMACS Running Buffer, and the samples were acquired on a BD LSRFortessa™ X20 flow cytometers (BD Biosciences, San Jose, Calif.) and analyzed with FLowJo V10 software (FlowJo, Ashland, Oreg.). […]

[4] = anti-CD3/anti-CD28 Dynabeads (1:5 beads:cells)

Compound | % CD25 within CD8+ [1, 4] [%] | % CD69 within CD8+ [1, 4] [%] | CD25 MFI [1, 4] | CD69 MFI [1, 4] | % CD25 within CD8+ ([1]; no TCR stimulation) [%] | % CD69 within CD8+ ([1]; no TCR stimulation) [%] | CD25 MFI ([1]; no TCR stimulation) | CD69 MFI ([1]; no TCR stimulation) | T cell activation and T cell function [1] | IP10 in plasma [fold increase over vehicle] (IP10) [fold] | mice that achieved complete cures [2] [%] | tolerability [2] | Tumor Growth Inhibition (Max) compared to vehicle [%] [2] [%] | tumor response observed [2] | pSTAT5 level in CD3+ T cells from IL2 stimulated whole blood [fold increase over vehicle] (pSTAT5 in CD3+ T cells) [fold] | % GzB+ cells within splenic CD8+ T cells [fold change over vehicle] [3] [fold]
COc1ccc2cc(O)c(N3CC(=O)NS3(=O)=O)c(F)c2c1 [Compound 124, 5-(1-fluoro-3-hydroxy-7-methoxynaphthalen-2-yl)-1λ^6,2,5-thiadiazolidine-1,1,3-trione] | 32.55 | 61.90 | 846.5 | 1421.5 | 0.39 | 0.23 | 57.05 | 28.1 | increased both T cell activation and T cell function | 2.5 | 50 | well tolerated, without obvious adverse health events | 75 | apparent tumor stasis and shrinkage | 2.3 | 2.9
CC(C)(O)CCOc1ccc2cc(O)c(N3CC(=O)NS3(=O)=O)c(F)c2c1 [Compound 182, 5-[1-fluoro-3-hydroxy-7-(3-hydroxy-3-methylbutoxy)naphthalen-2-yl]-1λ^6,2,5-thiadiazolidine-1,1,3-trione] | 29.20 | 61.90 | 741 | 1601.5 | 1.17 | 0.45 | 72.4 | 18.3 | increased both T cell activation and T cell function | – | 50 | well tolerated, without obvious adverse health events | 94 | apparent tumor stasis and shrinkage | – | –

Source: patent US20210009542A1 (Calico Life Sciences LLC, priority 2018, published 2021)
